According to patent US12410179B2, “Modulators of TNF alpha activity and uses thereof” (RayThera, Inc., priority 2023, dated 2025):
Like-named read-outs stand apart in the source and are kept apart here.

Molecular target: TNFα (Homo sapiens, UniProt P01375)
Experiment: HEK-Blue hTNFα reporter assay
Format: cell-based
Parameters: purchased R&D biosystem (R&D Systems) 210-TA-020/CF
Conditions: HEK-Blue hTNFα reporter cells; for Emax: read-out: TNFα reporter, Emax
How it was run: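 IC50 from 4-parameter regression of % inhibition, with OD620 of secreted SEAP (QUANTI-Blue, 1 h) referenced to cells with and without hTNFα. HEK-Blue TNFα reporter cells were exposed 24 h to compound premixed 1 h with hTNFα ([…]).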

[1] = SEAP readout, read-out: IC50 Range

TNFα, sequence (P01375 77-233 limits assumed): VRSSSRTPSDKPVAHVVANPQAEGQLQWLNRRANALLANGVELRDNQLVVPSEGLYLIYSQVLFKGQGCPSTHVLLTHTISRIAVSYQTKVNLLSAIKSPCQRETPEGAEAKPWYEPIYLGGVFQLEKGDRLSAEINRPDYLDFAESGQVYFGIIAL

IC50 [1] | Emax | IC50 (read-out: TNFα reporter, IC50) | Compound
25 to 100 nM |  |  | CN1C(=O)c2cccc(OC(F)F)c2[C@H]2C[C@@H]1c1nn3ccc(-c4cnc(C5(O)CCOC5)nc4)nc3c12 (stereo partly drawn) [Example 12, (7R,14S)-1-(difluoromethoxy)-12-(2-(3-hydroxytetrahydrofuran-3-yl)pyrimidin-5-yl)-6-methyl-6,7-dihydro-7,14-methanobenzo[c]pyrimido[1′,2′:1,5]pyrazolo[4,3-f]azocin-5 (14H)-one]
< 25 nM |  |  | [2H]C([2H])([2H])N1C(=O)c2cccc(OC(F)F)c2[C@H]2C[C@@H]1c1nn3ccc(-c4cnc([C@]5(O)C[C@@](C)(C#N)C5)nc4)nc3c12 [Example 271]
< 25 nM |  |  | CN1C(=O)c2cccc(OC(F)F)c2[C@H]2C[C@@H]1c1nn3ccc(-c4cnc(C(C)(C)O)nc4)cc3c12 [Example 19]
< 25 nM |  |  | CN1C(=O)c2cccc(OC(F)F)c2[C@H]2C[C@@H]1c1nn3cc(F)c(-c4cnc([C@]5(O)C[C@@](C)(O)C5)cn4)cc3c12 [Example 43]
< 25 nM |  |  | [2H]C([2H])([2H])N1C(=O)c2cccc(OC(F)F)c2[C@H]2C[C@@H]1c1nn3ccc(-c4cnc([C@]5(N)C[C@@](C)(O)C5)nc4)nc3c12 [Example 218]
< 25 nM |  |  | Cc1cc(P(C)(C)=O)c(F)cc1-c1ccn2nc3c(c2c1)[C@@H]1C[C@H]3NC(=O)c2cccc(OC(F)F)c21 [Example 198]
< 25 nM |  |  | [2H]C([2H])([2H])N1C(=O)c2cccc(OC(F)F)c2[C@H]2C[C@@H]1c1nn3cc(F)c(-c4cnc(C(C)(C)N)nc4)cc3c12 [Example 294]
25 to 100 nM |  |  | CN1C(=O)c2cccc(OC(F)F)c2[C@H]2C[C@@H]1c1nn3ccc(-c4cnc(S(=N)(=O)C5CC5)nc4)cc3c12 (stereo partly drawn) [Example 92]
< 25 nM |  |  | CN1C(=O)c2cccc(OC(F)F)c2[C@H]2C[C@@H]1c1nn3ccc(-c4cnc([C@]5(O)C[C@@](C)(C(N)=O)C5)nc4)cc3c12 [Example 160]
< 25 nM |  |  | CN1C(=O)c2cccc(OC(F)F)c2[C@H]2C[C@@H]1c1nn3cc(F)c(-c4cnc([C@]5(O)C[C@@H](O)C5)nc4)cc3c12 [Example 125]
< 25 nM |  |  | CN1C(=O)c2cccc(OC(F)F)c2[C@H]2C[C@@H]1c1nn3ccc(-c4cnc([C@]5(O)C[C@@](C)(O)C5)cn4)cc3c12 [Example 42]
< 25 nM |  |  | [2H]C([2H])([2H])N1C(=O)c2cccc(OC)c2[C@H]2C[C@@H]1c1nn3ccc(-c4cnc(C5(N)CCC5)nc4)cc3c12 [Example 251]
< 25 nM |  |  | Cc1nc(C2(N)CCC2)ncc1-c1ccn2nc3c(c2n1)[C@@H]1C[C@H]3NC(=O)c2cccc(OC(F)F)c21 [Example 275]
< 25 nM |  |  | [2H]C([2H])([2H])N1C(=O)c2cccc(OC(F)F)c2[C@H]2C[C@@H]1c1nn3ccc(-c4cnc([C@@H](N)C5CC5)nc4)cc3c12 [Example 258]
< 25 nM |  |  | COc1cccc2c1[C@H]1C[C@H](c3nn4ccc(-c5cnc(C6(N)CCC6)nc5)cc4c31)N(C)C2=O [Example 226]
< 25 nM |  |  | CN1C(=O)c2cccc(OC(F)F)c2[C@H]2C[C@@H]1c1nn3ccc(-c4cnc(P(C)(C)=O)c(F)c4)cc3c12 [Example 21]
< 25 nM |  |  | [2H]C([2H])([2H])N1C(=O)c2cccc(OC(F)F)c2[C@H]2C[C@@H]1c1nn3cc(F)c(-c4cnc([C@]5(N)C[C@@](C)(C#N)C5)nc4)cc3c12 [Example 240]
< 25 nM |  |  | CN1C(=O)c2cccc(OC(F)F)c2[C@H]2C[C@@H]1c1nn3cc(F)c(-c4ccc([S@@](=N)(=O)C5CC5)nc4)cc3c12 [Example 120]
100 to 1000 nM |  |  | [2H]C([2H])([2H])N1C(=O)c2cccc(OC(F)F)c2[C@H]2C[C@@H]1c1nn3ccc(-c4cnc([C@]5(C#N)C[C@](C)(N)C5)nc4)nc3c12 [Example 236]
< 25 nM |  |  | CN1C(=O)c2cccc(OC(F)F)c2[C@H]2C[C@@H]1c1nn3ccc(-c4cnc([C@H](O)C(F)F)nc4)cc3c12 [Example 105]
< 25 nM |  |  | CN1C(=O)c2ccc(F)c(OC(F)F)c2[C@H]2C[C@@H]1c1nn3ccc(-c4ccc(P(C)(C)=O)nc4)cc3c12 [Example 34]
< 25 nM |  |  | [2H]C([2H])([2H])N1C(=O)c2cccc(OC(F)F)c2[C@H]2C[C@@H]1c1nn3cnc(-c4cnc([C@]5(N)C[C@@](C)(C#N)C5)c(F)c4)cc3c12 [Example 175]
< 25 nM | 91% | 2.3 nM | CN1C(=O)c2cccc(OC(F)F)c2[C@H]2C[C@@H]1c1nn3ccc(-c4cnc([C@]5(O)C[C@@](C)(O)C5)nc4)cc3c12 [Example 24]

IC50 [1] | Emax | IC50 (read-out: TNFα reporter, IC50) | Compound
< 25 nM |  |  | CN1C(=O)c2cccc(OC(F)F)c2[C@H]2C[C@@H]1c1nn3ccc(-c4cnc([C@]5(O)CCOC5)nc4)cc3c12 [Example 63]
< 25 nM |  |  | CN1C(=O)c2cccc(OC(F)F)c2[C@H]2C[C@@H]1c1nn3cnc(-c4ccc(P(C)(C)=O)nc4)cc3c12 [Example 30]
< 25 nM |  |  | CN1C(=O)c2cccc(OC(F)F)c2[C@H]2C[C@@H]1c1nn3cc(F)c(-c4cnc([C@]5(N)C[C@@](C)(O)C5)c(F)c4)nc3c12 [Example 50]
< 25 nM |  |  | CN1C(=O)c2cccc(OC(F)F)c2[C@H]2C[C@@H]1c1nn3ccc(-c4cnc([C@]5(N)C[C@@](C)(O)C5)nc4)nc3c12 [Example 9, (7R,14S)-12-(2-((1s,3R)-1-amino-3-hydroxy-3-methylcyclobutyl)pyrimidin-5-yl)-1-(difluoromethoxy)-6-methyl-6,7-dihydro-7,14-methanobenzo[c]pyrimido[1′,2′:1,5]pyrazolo[4,3-f]azocin-5 (14H)-one]
< 25 nM |  |  | C[C@]1(O)C[C@](N)(c2ncc(-c3ccn4nc5c(c4c3)[C@@H]3C[C@H]5N(C4CC4)C(=O)c4cccc(OC(F)F)c43)cn2)C1 [Example 329]
< 25 nM |  |  | [2H]C([2H])([2H])N1C(=O)c2cccc(OC(F)F)c2[C@H]2C[C@@H]1c1nn3ccc(-c4cnc([C@]5(N)C[C@@H](C#N)C5)nc4)cc3c12 [Example 170]
< 25 nM |  |  | CN1C(=O)c2cccc(OC(F)F)c2[C@H]2C[C@@H]1c1nn3ccc(-c4cnc([C@]5(C#N)C[C@@](C)(O)C5)nc4)nc3c12 [Example 5, (1r,3S)-1-(5-((7R,14S)-1-(difluoromethoxy)-6-methyl-5-oxo-5,6,7,14-tetrahydro-7,14-methanobenzo[c]pyrimido[1′,2′:1,5]pyrazolo[4,3-f]azocin-12-yl)pyrimidin-2-yl)-3-hydroxy-3-methylcyclobutane-1-carbonitrile]
< 25 nM |  |  | [2H]C([2H])([2H])N1C(=O)c2cccc(OC(F)F)c2[C@H]2C[C@@H]1c1nn3cc(F)c(-c4cnc(C5(N)COC5)nc4)cc3c12 [Example 206]
25 to 100 nM |  |  | [2H]C([2H])([2H])N1C(=O)c2cccc(OC(F)F)c2[C@H]2C[C@@H]1c1nn3ccc(-c4cnc([C@@]5(N)CCOC5)nc4)nc3c12 [Example 194]
< 25 nM |  |  | C[C@]1(C#N)C[C@](N)(c2ccc(-c3ccn4nc5c(c4n3)[C@@H]3C[C@H]5NC(=O)c4cccc(OC(F)F)c43)cn2)C1 [Example 217]
< 25 nM |  |  | CN1C(=O)c2cccc(OC(F)F)c2[C@H]2C[C@@H]1c1nn3cc(F)c(-c4cnc([C@@](C)(O)CO)nc4)cc3c12 [Example 115]
25 to 100 nM |  |  | [2H]C([2H])([2H])N1C(=O)c2cccc(C#N)c2[C@H]2C[C@@H]1c1nn3ccc(-c4cnc(C5(N)CCC5)nc4)nc3c12 [Example 310]
< 25 nM |  |  | [2H]C([2H])([2H])N1C(=O)c2cccc(OC(F)F)c2[C@H]2C[C@@H]1c1nn3cc(F)c(-c4cnc(C5(N)CC5)nc4)nc3c12 [Example 239]
< 25 nM |  |  | [2H]C([2H])([2H])N1C(=O)c2cccc(C#N)c2[C@H]2C[C@@H]1c1nn3ccc(-c4cnc([C@]5(N)C[C@@](C)(C#N)C5)nc4)nc3c12 [Example 301, (7R,14R)-12-(2-((1s,3S)-1-amino-3-cyano-3-methylcyclobutyl)pyrimidin-5-yl)-6-(methyl-d3)-5-oxo-5,6,7,14-tetrahydro-7,14-methanobenzo[c]pyrimido[1′,2′:1,5]pyrazolo[4,3-f]azocine-1-carbonitrile]
< 25 nM |  |  | CN1C(=O)c2cccc(OC(F)F)c2[C@H]2C[C@@H]1c1nn3ccc(-c4ncc([C@H](O)C5COC5)cn4)cc3c12 [Example 108]
25 to 100 nM |  |  | [2H]C([2H])([2H])N1C(=O)c2cccc(OC(F)F)c2[C@H]2C[C@@H]1c1nn3ccc(-c4cnc(C5(N)COC5)nc4)nc3c12 [Example 177]
25 to 100 nM |  |  | CN1C(=O)c2c(F)ccc(OC(F)F)c2[C@H]2C[C@@H]1c1nn3ccc(-c4cnc(C5(N)CCC5)nc4)cc3c12 [Example 322, (7R,14S)-12-(2-(1-aminocyclobutyl)pyrimidin-5-yl)-1-(difluoromethoxy)-4-fluoro-6-methyl-6,7-dihydro-7,14-methanobenzo[c]pyrido[1′,2′:1,5]pyrazolo[4,3-f]azocin-5 (14H)-one]
< 25 nM |  |  | [2H]C([2H])([2H])N1C(=O)c2cccc(OC(F)F)c2[C@H]2C[C@@H]1c1nn3cc(C)c(-c4cnc(C(C)(C)N)nc4)nc3c12 [Example 296]
< 25 nM |  |  | CN1C(=O)c2cccc(OC(F)F)c2[C@H]2C[C@@H]1c1nn3cnc(-c4ccc(P(C)(C)=O)c(F)c4)cc3c12 [Example 144]
< 25 nM |  |  | [2H]C([2H])([2H])N1C(=O)c2cccc(OC(F)F)c2[C@H]2C[C@@H]1c1nn3ccc(-c4cnc(C5(N)CCC5)cn4)cc3c12 [Example 207]
100 to 1000 nM |  |  | CN1C(=O)c2cccc(OC(F)F)c2[C@@H]2C[C@H]1c1nn3ccc(-c4cnc(C5(N)CCC5)nc4)nc3c12 [Example 2, (7S,14R)-12-(2-(1-aminocyclobutyl)pyrimidin-5-yl)-1-(difluoromethoxy)-6-methyl-6,7-dihydro-7,14-methanobenzo[c]pyrimido[1′,2′:1,5]pyrazolo[4,3-f]azocin-5 (14H)-one]
 | 92% | 4.2 nM | CN1C(=O)c2cccc(OC(F)F)c2[C@H]2C[C@@H]1c1nc3ccc(-c4cnc([C@]5(N)C[C@@](C)(CO)C5)nc4)cc3n12 [Comp. Ex #7, reference compound]
